Reference: patent publication US20130295036A1, “METHOD OF USING WOOD EXTRACTS IN COSMETIC AND HYGIENE PRODUCTS” (FLAVITPURE, INC., priority 2012, published 2013)

Tests used:
[1] = test system: 5-LOX mediated LT biosynthesis; assay: Leukotriene (LT) biosynthesis inhibition; type: biochemical
Source text: (§1) The body's early defense in response to trauma, inflammation or infection, the acute phase response (APR), is a complex set of systemic reactions seen shortly after exposure to a triggering event. The APR is induced by protein hormones called cytokines acting as messengers between the local site of injury and the hepatocytes synthesizing the acute phase proteins such as serum amyloid A. Most cytokines have multiple sources, targets and multiple functions. The pro-inflammatory cytokines can be divided into two major groups with respect to acute phase proteins inductions, the Interleukin-1 (IL-1) type (including Tumor Necrosis Factor-a, TNF-a) and the IL-6 type cytokines (including IL-6 cytokine). These cytokines are secreted primarily by monocytes activated by bacterial toxins or in response to local tissue injury.

rats = settings: high levels for long periods of time; cited from earlier work
lipid peroxidation = settings: in vitro and ex vivo; cited from earlier work
serum and liver lipids = settings: following exposure to toxic ionizing radiation; cited from earlier work
[2] = test system: dendritic cells of bone marrow and spleen; settings: cited from earlier work
[3] = test system: Antioxidant Response Element; settings: cited from earlier work
COX-2 = molecular target: T1, COX-2 (Homo sapiens, UniProt P35354); assay: COX-2 inhibition; type: biochemical
T1 sequence (P35354 18-604): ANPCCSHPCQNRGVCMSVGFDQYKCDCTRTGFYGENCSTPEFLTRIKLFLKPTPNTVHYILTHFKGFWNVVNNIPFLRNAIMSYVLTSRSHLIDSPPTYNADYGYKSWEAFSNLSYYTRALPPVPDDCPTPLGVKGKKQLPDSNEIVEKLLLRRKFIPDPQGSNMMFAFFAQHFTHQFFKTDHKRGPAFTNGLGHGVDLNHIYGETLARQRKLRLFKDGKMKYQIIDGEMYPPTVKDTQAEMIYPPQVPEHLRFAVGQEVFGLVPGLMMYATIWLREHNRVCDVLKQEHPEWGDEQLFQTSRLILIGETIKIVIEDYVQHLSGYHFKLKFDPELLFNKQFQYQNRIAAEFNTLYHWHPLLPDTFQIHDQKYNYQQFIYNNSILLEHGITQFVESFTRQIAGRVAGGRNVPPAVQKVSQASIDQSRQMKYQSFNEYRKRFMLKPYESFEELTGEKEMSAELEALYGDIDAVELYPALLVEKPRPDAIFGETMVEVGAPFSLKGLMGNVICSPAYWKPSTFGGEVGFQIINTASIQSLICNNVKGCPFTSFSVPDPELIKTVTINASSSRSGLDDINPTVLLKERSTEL
Source text: as §1

C=C[C@@]1(C)CC[C@H]2C(=CC[C@@H]3[C@]2(C)CCC[C@@]3(C)C(=O)O)C1 [Isopimaric acid]
LT biosynthesis inhibitory activity [1]: potent inhibitor

O=C1c2c(O)cc(O)cc2O[C@H](c2ccc(O)c(O)c2)[C@H]1O [Dihydroquercetin (taxifolin), (2R,3R)-2-(3,4-dihydroxyphenyl)-3,5,7-trihydroxy-chroman-4-one]
toxic effects (rats): No toxic effects | inhibition of lipid peroxidation (lipid peroxidation): inhibits lipid peroxidation | peroxidation of serum and liver lipids (serum and liver lipids): inhibited | production of cytokines, formation of ROS and NO, and change in intracellular Ca2+ levels [2]: significant inhibitory effect | activation of Antioxidant Response Element [3]: significantly activates

CC(C)c1ccc2c(c1)CC[C@H]1[C@](C)(CO)CCC[C@]21C [dehydroabietinol]
LT biosynthesis inhibitory activity [1]: high LT formation inhibitory activity

CC(C)C1=CC2=C(CC1)[C@@]1(C)CCC[C@@](C)(C(=O)O)[C@@H]1CC2 [palustric acid]
LT biosynthesis inhibitory activity [1]: less pronounced | COX-2 inhibitory activity (COX-2): moderate

C=CC(C)(O)CCC1C(=C)CC(OC(C)=O)C2C(C)(C)CCCC12C (stereo not shown) [Larixyl acetate]
LT biosynthesis inhibitory activity [1]: highly active
